Like-named read-outs stand apart in the source and are kept apart here. Values belong to the compound of their own block, whether it stands above or below them.
Key:
[1] = Paclitaxel plasma pharmacokinetics in patients after belinostat (LC-MS/MS, non-compartmental); type: in vivo, human
Protocol: (§1) Blood samples for belinostat PK, when administered alone were taken pre-treatment, at the end of infusion and 5 min, 15, 30 min, 1 h, 2, 3 h, 3 h 15 min, 3 h 30 min, 4, 5, 6 h after infusion on days 1 and 3 of cycle 1. Samples for carboplatin or paclitaxel when administered after belinostat, were taken relative to the start of belinostat infusion at 3 h (pre-carboplatin or-paclitaxel), 3 h 15 min, 3 h 30 min, 4, 5 and 6 h in cycle 1 on day 3. In addition, samples were taken for BelCaP when administered together at 6 h 15 min, 6 h 30 min, 7, 8, 9 and 24 h after belinostat on day 3. Belinostat and paclitaxel levels were determined in lithium-heparinised plasma using validated solid-phase extraction high performance liquid chromatograpgy (HPLC)-tandem mass spectrometric detection (MS/MS) methods (Covance, Indianapolis, IN, USA). The lower limit of quantitation was 5 and 10 ng ml^−1 for belinostat and paclitaxel, respectively. Belinostat plasma concentrations were determined at Covance using a validated method involving solid-phase extraction, separation with acetic acid acetonitril gradient on reversed phase C18 silica and MS/MS using penta-deuterated belinostat as the internal standard. Belinostat and the internal standard were detected using negative ion electron spray with the transition from 317 to 143 and 322 to 143 m z^−1, respectively.
Paclitaxel and the internal standard, cephalomannine, are extracted from human plasma by solid-phase extraction on a cyanopropyl solid-phase extraction cartridge. After eluting with the mobile phase, the eluent is directly analysed using liquid chromatography with MS/MS. The standard curve range for this assay is from 10.0 to 2000 ng ml^−1 for paclitaxel, using a plasma sample volume of 0.250 ml.
(§2) Plasma concentration–time curves of all three analytes were analysed by non-compartmental methods using WinNonlin (version 4.0.1 Pharsight Corp., Cary, NC, USA). For all analytes the AUC was estimated from the start of infusion by the logarithmic-linear trapezoidal rule and extrapolated to infinity using the estimated value of the slope of the terminal logarithmic-linear disposition phase. Analysis was carried out on the non-dose-normalised plasma concentration of carboplatin, as dosing had already been normalised per GFR using Calvert's formula ([Calvert et al, 1989]).

[2] = test system: patients with solid tumours; conditions: ref Munster et al, cited from earlier work; for patients who responded: valproic acid with epirubicin, 2009
[3] = Carboplatin (platinum by ICP-MS) plasma pharmacokinetics in patients after belinostat and paclitaxel; type: in vivo, human; conditions: for AUCall / AUCinf / Cl / Cmax / T1/2 / Vss: mean±s.d.
Protocol: as §1
Human plasma samples were analysed for Pt from carboplatin by inductively coupled plasma-mass spectrometry after dilution with 0.01% Triton X-100 in 0.1% nitric acid. The samples were analysed without pre-digestion or extraction directly against matrix-matched standard solutions. Intensity, as counts per second from Pt, mass 195, was measured. Terbium, mass 159, was used as an internal standard. The results were calculated from the net intensity ratio of Pt to internal standard. The standard curve range was 2.00–1000 ng Pt ml^−1 in plasma. Samples above the calibration range were diluted using blank human plasma.
as §2

[4] = test system: patients with advanced solid malignancies; parameters: method as in Ramalingam et al, 2007a; conditions: ref Ramalingam et al, 2007a, cited from earlier work
[5] = human, plasma, iv, paclitaxel 175 mg m^−2 i.v. day 3 after belinostat 600 mg m^−2, 6 patients, mean±s.d.
[6] = human, plasma, iv, paclitaxel 175 mg m^−2 i.v. day 3 after belinostat 800 mg m^−2, 3 patients, mean±s.d.
[7] = human, plasma, iv, paclitaxel 175 mg m^−2 i.v. day 3 after belinostat 1000 mg m^−2, 7 patients, mean±s.d.
[8] = paclitaxel 175 mg m^−2 i.v. day 3 after belinostat 600 mg m^−2, 6 patients, mean±s.d.
[9] = paclitaxel 175 mg m^−2 i.v. day 3 after belinostat 800 mg m^−2, 3 patients, mean±s.d.
[10] = paclitaxel 175 mg m^−2 i.v. day 3 after belinostat 1000 mg m^−2, 7 patients, mean±s.d.
[11] = valproic acid combined with epirubicin, 2007
[12] = carboplatin equivalents from total platinum, target AUC 5 i.v. day 3 after belinostat 600 mg m^−2 and paclitaxel, 7 patients
[13] = carboplatin equivalents from total platinum, target AUC 5 i.v. day 3 after belinostat 800 mg m^−2 and paclitaxel, 3 patients
[14] = carboplatin equivalents from total platinum, target AUC 5 i.v. day 3 after belinostat 1000 mg m^−2 and paclitaxel, 7 patients
[15] = carboplatin equivalents, target AUC 5 i.v. day 3, Total Mean over all belinostat dose levels
[16] = vorinostat with carboplatin and paclitaxel, 25 patients treated

AUC [1, 5]: 14 ± 2.5 µM·h
AUC(0-inf) [1, 5]: 14.7 ± 2.6 µM·h
Cmax [1, 5]: 3.9 ± 0.7 µM
half-life [1, 5]: 5.7 ± 0.5 h
AUC [1, 6]: 12.8 ± 1.7 µM·h
AUC(0-inf) [1, 6]: 13.3 ± 2 µM·h
half-life [1, 6]: 5.5 ± 1.1 h
AUC [1, 7]: 14.4 ± 3.8 µM·h
AUC(0-inf) [1, 7]: 15 ± 4 µM·h
half-life [1, 7]: 5.5 ± 0.6 h
Cl [1, 8]: 14.3±2.2 l h^−1 m^−2
Vss [1, 8]: 56.6±21.2 l m^−2
Cl [1, 9]: 15.7±2.6 l h^−1 m^−2
Vss [1, 9]: 53.0±3.0 l m^−2
Cl [1, 10]: 14.8±4.9 l h^−1 m^−2
Vss [1, 10]: 57.2±31.7 l m^−2
effect of concurrent administration on pharmacokinetics ([1]; paclitaxel after belinostat): unaltered
Structure (SMILES): CC(=O)O[C@H]1C(=O)[C@@]2(C)[C@H]([C@H](OC(=O)c3ccccc3)[C@]3(O)C[C@H](OC(=O)[C@H](O)[C@@H](NC(=O)c4ccccc4)c4ccccc4)C(C)=C1C3(C)C)[C@]1(OC(C)=O)CO[C@@H]1C[C@@H]2O [paclitaxel]

Structure (SMILES): CCCC(CCC)C(=O)O [valproic acid]
dose-limiting toxicities [2, 11]: neurological DLTs
grade II–III QTc prolongation, patients [2, 11]: approximately 25%
patients who responded ([2]; of 41 patients with a variety of solid tumours): 9
patients who responded ([2]; phase II portion, breast cancer): 64%

Structure (SMILES): N.N.O=C([O-])C1(C(=O)[O-])CCC1.[Pt+2] [carboplatin]
effect of concurrent administration on pharmacokinetics ([3]; carboplatin after belinostat): unaltered
AUCall [3, 12]: 7.8 ± 1.4 mg·min/mL
AUCinf [3, 12]: 8.8 ± 1.3 mg·min/mL
Cl [3, 12]: 4.4 ± 0.9 L/h
Cmax [3, 12]: 27400 ± 4000 ng/mL
T1/2 [3, 12]: 7.8 ± 2.7 h
Vss [3, 12]: 34.3 ± 16.1 L
AUCall [3, 13]: 8.9 ± 2.1 mg·min/mL
AUCinf [3, 13]: 9.7 ± 1.9 mg·min/mL
Cl [3, 13]: 4.1 ± 0.5 L/h
Cmax [3, 13]: 32800 ± 11700 ng/mL
T1/2 [3, 13]: 5.4 ± 1.0 h
Vss [3, 13]: 21.9 ± 7.6 L
AUCall [3, 14]: 8.4 ± 1.0 mg·min/mL
AUCinf [3, 14]: 9.3 ± 1.1 mg·min/mL
Cl [3, 14]: 3.5 ± 0.8 L/h
Cmax [3, 14]: 29600 ± 14000 ng/mL
T1/2 [3, 14]: 6.0 ± 0.8 h
Vss [3, 14]: 20.4 ± 3.5 L
AUCall [3, 15]: 8.2 ± 1.4 mg·min/mL
AUCinf [3, 15]: 9.2 ± 1.3 mg·min/mL
Cl [3, 15]: 3.9 ± 0.8 L/h
Cmax [3, 15]: 29200 ± 1000 ng/mL
T1/2 [3, 15]: 6.6 ± 2.1 h
Vss [3, 15]: 26.4 ± 12.5 L

Structure (SMILES): O=C(CCCCCCC(=O)Nc1ccccc1)NO [vorinostat]
grade III/IV neutropenia, patients ([4]; vorinostat with carboplatin and paclitaxel at higher dose than present study): 50%
patients with PR, head and neck cancer [4, 16]: 1
patients with PR, non-small-cell lung cancer [4, 16]: 10

— PMC2905291, “A phase I study of the safety and pharmacokinetics of the histone deacetylase inhibitor belinostat administered in combination with carboplatin and/or paclitaxel in patients with solid tumours” (British Journal of Cancer, 2010)
